Test results published in PubChem BioAssay (NCI).
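Test compounds were applied to cells in 96-well plates for 48 hours at 5 doses. The concentration for 50% growth inhibition is given as GI50. TGI: concentration producing complete growth inhibition.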

Test system: HL-60(TB) leukemia
Assay: NCI-60 cell line screen, 48 h

Going from `CCOC(CN(C)C(=S)Nc1cccc2ccccc12)OCC` to `COc1ccc(/C=C(/c2ccccc2)[N+](=O)[O-])cc1`, the TGI falls from over 10 µM to 6.87 µM.

For `COc1cc(CNc2nc3cc(C(F)(F)F)ccc3nc2-c2ccccc2)cc(OC)c1OC`, the TGI was 70 µM.

`COc1ccc(/C=C(/c2ccccc2)[N+](=O)[O-])cc1` was tested, and the GI50 was 2350 nM.

Test system: SNB-19 CNS
Assay: NCI-60 cell line screen, 48 h

In order of falling GI50:
1. Nc1ccccc1SC1CC(=O)N(c2ccc(Cl)c(Cl)c2)C1=O (stereo unspecified)  31.6 µM
2. COc1ccc(/C=C(/c2ccccc2)[N+](=O)[O-])cc1  1.65 µM

Going from `Nc1ccccc1SC1CC(=O)N(c2ccc(Cl)c(Cl)c2)C1=O` (stereo unspecified) to `COc1ccc(/C=C(/c2ccccc2)[N+](=O)[O-])cc1`, the TGI falls from over 100 µM to 3.17 µM.

`CCOC(CN(C)C(=S)Nc1cccc2ccccc12)OCC` and `COc1cc(CNc2nc3cc(C(F)(F)F)ccc3nc2-c2ccccc2)cc(OC)c1OC` cannot be ordered by TGI: over 10 µM for the first, over 100 µM for the second.

Work on `CCCCN(CCCC)C(=C(C(Cl)=C(Cl)Cl)[N+](=O)[O-])N(CCCC)CCCC` yielded a TGI of over 100 µM.

Test system: ACHN renal
Assay: NCI-60 cell line screen, 48 h

In order of rising GI50:
1. COc1ccc(/C=C(/c2ccccc2)[N+](=O)[O-])cc1  1.55 µM
2. Nc1ccccc1SC1CC(=O)N(c2ccc(Cl)c(Cl)c2)C1=O (stereo unspecified)  19.4 µM

Going from `Nc1ccccc1SC1CC(=O)N(c2ccc(Cl)c(Cl)c2)C1=O` (stereo unspecified) to `COc1ccc(/C=C(/c2ccccc2)[N+](=O)[O-])cc1`, the TGI falls from 74.9 µM to 2.9 µM (26-fold).

`CCOC(CN(C)C(=S)Nc1cccc2ccccc12)OCC` and `COc1cc(CNc2nc3cc(C(F)(F)F)ccc3nc2-c2ccccc2)cc(OC)c1OC` cannot be ordered by TGI: over 10 µM for the first, over 100 µM for the second.

Work on `CCCCN(CCCC)C(=C(C(Cl)=C(Cl)Cl)[N+](=O)[O-])N(CCCC)CCCC` yielded a TGI of over 100 µM.

Test system: RPMI-8226 leukemia
Assay: NCI-60 cell line screen, 48 h

In order of rising GI50:
1. COc1ccc(/C=C(/c2ccccc2)[N+](=O)[O-])cc1  0.486 µM
2. Nc1ccccc1SC1CC(=O)N(c2ccc(Cl)c(Cl)c2)C1=O (stereo unspecified)  10.6 µM

First: Nc1ccccc1SC1CC(=O)N(c2ccc(Cl)c(Cl)c2)C1=O (stereo unspecified)
Second: COc1ccc(/C=C(/c2ccccc2)[N+](=O)[O-])cc1
The TGI of the first is higher: over 100 µM for the first, 3.01 µM for the second.

`CCOC(CN(C)C(=S)Nc1cccc2ccccc12)OCC` and `COc1cc(CNc2nc3cc(C(F)(F)F)ccc3nc2-c2ccccc2)cc(OC)c1OC` cannot be ordered by TGI: over 10 µM for the first, over 100 µM for the second.

`CCCCN(CCCC)C(=C(C(Cl)=C(Cl)Cl)[N+](=O)[O-])N(CCCC)CCCC` gave a TGI of 58.7 µM.

Test system: UO-31 renal
Assay: NCI-60 cell line screen, 48 h

In order of rising GI50:
1. COc1ccc(/C=C(/c2ccccc2)[N+](=O)[O-])cc1  1.13 µM
2. Nc1ccccc1SC1CC(=O)N(c2ccc(Cl)c(Cl)c2)C1=O (stereo unspecified)  11.7 µM

Going from `Nc1ccccc1SC1CC(=O)N(c2ccc(Cl)c(Cl)c2)C1=O` (stereo unspecified) to `COc1ccc(/C=C(/c2ccccc2)[N+](=O)[O-])cc1`, the TGI falls from 45 µM to 2.35 µM (19-fold).

`CCOC(CN(C)C(=S)Nc1cccc2ccccc12)OCC` and `COc1cc(CNc2nc3cc(C(F)(F)F)ccc3nc2-c2ccccc2)cc(OC)c1OC` cannot be ordered by TGI: over 10 µM for the first, over 100 µM for the second.

Work on `CCCCN(CCCC)C(=C(C(Cl)=C(Cl)Cl)[N+](=O)[O-])N(CCCC)CCCC` yielded a TGI of over 100 µM.

Test system: UACC-62 melanoma
Assay: NCI-60 cell line screen, 48 h

In order of falling GI50:
1. Nc1ccccc1SC1CC(=O)N(c2ccc(Cl)c(Cl)c2)C1=O (stereo unspecified)  14 µM
2. COc1ccc(/C=C(/c2ccccc2)[N+](=O)[O-])cc1  1.5 µM

First: Nc1ccccc1SC1CC(=O)N(c2ccc(Cl)c(Cl)c2)C1=O (stereo unspecified)
Second: COc1ccc(/C=C(/c2ccccc2)[N+](=O)[O-])cc1
The TGI of the first is higher: over 100 µM for the first, 3.17 µM for the second.

`CCOC(CN(C)C(=S)Nc1cccc2ccccc12)OCC` and `COc1cc(CNc2nc3cc(C(F)(F)F)ccc3nc2-c2ccccc2)cc(OC)c1OC` cannot be ordered by TGI: over 10 µM for the first, 33.3 µM for the second.

`CCCCN(CCCC)C(=C(C(Cl)=C(Cl)Cl)[N+](=O)[O-])N(CCCC)CCCC` showed a TGI of over 100 µM.

Test system: NCI-H460 lung
Assay: NCI-60 cell line screen, 48 h

In order of falling GI50:
1. Nc1ccccc1SC1CC(=O)N(c2ccc(Cl)c(Cl)c2)C1=O (stereo unspecified)  32 µM
2. COc1ccc(/C=C(/c2ccccc2)[N+](=O)[O-])cc1  2.04 µM

Going from `Nc1ccccc1SC1CC(=O)N(c2ccc(Cl)c(Cl)c2)C1=O` (stereo unspecified) to `COc1ccc(/C=C(/c2ccccc2)[N+](=O)[O-])cc1`, the TGI falls from over 100 µM to 4.16 µM.

`CCOC(CN(C)C(=S)Nc1cccc2ccccc12)OCC` and `COc1cc(CNc2nc3cc(C(F)(F)F)ccc3nc2-c2ccccc2)cc(OC)c1OC` cannot be ordered by TGI: over 10 µM for the first, over 100 µM for the second.

Work on `CCCCN(CCCC)C(=C(C(Cl)=C(Cl)Cl)[N+](=O)[O-])N(CCCC)CCCC` yielded a TGI of over 100 µM.

Test system: HT29 colon
Assay: NCI-60 cell line screen, 48 h

In order of falling GI50:
1. Nc1ccccc1SC1CC(=O)N(c2ccc(Cl)c(Cl)c2)C1=O (stereo unspecified)  42.1 µM
2. COc1ccc(/C=C(/c2ccccc2)[N+](=O)[O-])cc1  2.04 µM

First: Nc1ccccc1SC1CC(=O)N(c2ccc(Cl)c(Cl)c2)C1=O (stereo unspecified)
Second: COc1ccc(/C=C(/c2ccccc2)[N+](=O)[O-])cc1
The TGI of the first is higher: over 100 µM for the first, 11.3 µM for the second.

`CCOC(CN(C)C(=S)Nc1cccc2ccccc12)OCC` and `COc1cc(CNc2nc3cc(C(F)(F)F)ccc3nc2-c2ccccc2)cc(OC)c1OC` cannot be ordered by TGI: over 10 µM for the first, over 100 µM for the second.

Test system: A498 renal
Assay: NCI-60 cell line screen, 48 h

In order of rising GI50:
1. COc1ccc(/C=C(/c2ccccc2)[N+](=O)[O-])cc1  1010 nM
2. Nc1ccccc1SC1CC(=O)N(c2ccc(Cl)c(Cl)c2)C1=O (stereo unspecified)  4880 nM

First: Nc1ccccc1SC1CC(=O)N(c2ccc(Cl)c(Cl)c2)C1=O (stereo unspecified)
Second: COc1ccc(/C=C(/c2ccccc2)[N+](=O)[O-])cc1
The TGI of the first is 17-fold higher: 37.2 µM for the first, 2.24 µM for the second.

`CCOC(CN(C)C(=S)Nc1cccc2ccccc12)OCC` and `CCCCN(CCCC)C(=C(C(Cl)=C(Cl)Cl)[N+](=O)[O-])N(CCCC)CCCC` cannot be ordered by TGI: over 10 µM for the first, over 100 µM for the second.

Test system: OVCAR-5 ovarian
Assay: NCI-60 cell line screen, 48 h

Compared with `Nc1ccccc1SC1CC(=O)N(c2ccc(Cl)c(Cl)c2)C1=O` (stereo unspecified), `COc1ccc(/C=C(/c2ccccc2)[N+](=O)[O-])cc1` is lower in GI50: over 100000 nM for the first, 1620 nM for the second.

Going from `Nc1ccccc1SC1CC(=O)N(c2ccc(Cl)c(Cl)c2)C1=O` (stereo unspecified) to `COc1ccc(/C=C(/c2ccccc2)[N+](=O)[O-])cc1`, the TGI falls from over 100 µM to 3.26 µM.

`CCCCN(CCCC)C(=C(C(Cl)=C(Cl)Cl)[N+](=O)[O-])N(CCCC)CCCC` gave a TGI of over 100 µM.

Test system: T-47D breast
Assay: NCI-60 cell line screen, 48 h

In order of rising GI50:
1. COc1ccc(/C=C(/c2ccccc2)[N+](=O)[O-])cc1  1.2 µM
2. Nc1ccccc1SC1CC(=O)N(c2ccc(Cl)c(Cl)c2)C1=O (stereo unspecified)  12.6 µM

Compared with `Nc1ccccc1SC1CC(=O)N(c2ccc(Cl)c(Cl)c2)C1=O` (stereo unspecified), `COc1ccc(/C=C(/c2ccccc2)[N+](=O)[O-])cc1` is lower in TGI: over 100 µM for the first, 4.5 µM for the second.

First: CCOC(CN(C)C(=S)Nc1cccc2ccccc12)OCC
Second: COc1cc(CNc2nc3cc(C(F)(F)F)ccc3nc2-c2ccccc2)cc(OC)c1OC
The TGI of the first is higher: over 10 µM for the first, 6.62 µM for the second.

With `CCCCN(CCCC)C(=C(C(Cl)=C(Cl)Cl)[N+](=O)[O-])N(CCCC)CCCC` the TGI was over 100 µM.

Test system: IGROV1 ovarian
Assay: NCI-60 cell line screen, 48 h

In order of falling GI50:
1. Nc1ccccc1SC1CC(=O)N(c2ccc(Cl)c(Cl)c2)C1=O (stereo unspecified)  31 µM
2. COc1ccc(/C=C(/c2ccccc2)[N+](=O)[O-])cc1  1.27 µM

First: Nc1ccccc1SC1CC(=O)N(c2ccc(Cl)c(Cl)c2)C1=O (stereo unspecified)
Second: COc1ccc(/C=C(/c2ccccc2)[N+](=O)[O-])cc1
The TGI of the first is higher: over 100 µM for the first, 2.67 µM for the second.

`CCOC(CN(C)C(=S)Nc1cccc2ccccc12)OCC` and `COc1cc(CNc2nc3cc(C(F)(F)F)ccc3nc2-c2ccccc2)cc(OC)c1OC` cannot be ordered by TGI: over 10 µM for the first, over 100 µM for the second.

Test system: SF-539 CNS
Assay: NCI-60 cell line screen, 48 h

In order of rising GI50:
1. COc1ccc(/C=C(/c2ccccc2)[N+](=O)[O-])cc1  1.77 µM
2. Nc1ccccc1SC1CC(=O)N(c2ccc(Cl)c(Cl)c2)C1=O (stereo unspecified)  63.6 µM

Compared with `Nc1ccccc1SC1CC(=O)N(c2ccc(Cl)c(Cl)c2)C1=O` (stereo unspecified), `COc1ccc(/C=C(/c2ccccc2)[N+](=O)[O-])cc1` is lower in TGI: over 100 µM for the first, 3.18 µM for the second.

`CCOC(CN(C)C(=S)Nc1cccc2ccccc12)OCC` and `COc1cc(CNc2nc3cc(C(F)(F)F)ccc3nc2-c2ccccc2)cc(OC)c1OC` cannot be ordered by TGI: over 10 µM for the first, over 100 µM for the second.

`CCCCN(CCCC)C(=C(C(Cl)=C(Cl)Cl)[N+](=O)[O-])N(CCCC)CCCC` gave a TGI of over 100 µM.

Test system: HS 578T breast
Assay: NCI-60 cell line screen, 48 h

In order of falling GI50:
1. Nc1ccccc1SC1CC(=O)N(c2ccc(Cl)c(Cl)c2)C1=O (stereo unspecified)  12.5 µM
2. COc1ccc(/C=C(/c2ccccc2)[N+](=O)[O-])cc1  2.4 µM

Compared with `Nc1ccccc1SC1CC(=O)N(c2ccc(Cl)c(Cl)c2)C1=O` (stereo unspecified), `COc1ccc(/C=C(/c2ccccc2)[N+](=O)[O-])cc1` is 6.4-fold lower in TGI: 49.5 µM for the first, 7.7 µM for the second.

`CCOC(CN(C)C(=S)Nc1cccc2ccccc12)OCC` and `COc1cc(CNc2nc3cc(C(F)(F)F)ccc3nc2-c2ccccc2)cc(OC)c1OC` cannot be ordered by TGI: over 10 µM for the first, over 100 µM for the second.

Test system: NCI/ADR-RES ovarian
Assay: NCI-60 cell line screen, 48 h

In order of rising GI50:
1. COc1ccc(/C=C(/c2ccccc2)[N+](=O)[O-])cc1  1.75 µM
2. Nc1ccccc1SC1CC(=O)N(c2ccc(Cl)c(Cl)c2)C1=O (stereo unspecified)  17.1 µM

First: Nc1ccccc1SC1CC(=O)N(c2ccc(Cl)c(Cl)c2)C1=O (stereo unspecified)
Second: COc1ccc(/C=C(/c2ccccc2)[N+](=O)[O-])cc1
The TGI of the first is higher: over 100 µM for the first, 4.66 µM for the second.

`CCOC(CN(C)C(=S)Nc1cccc2ccccc12)OCC` and `COc1cc(CNc2nc3cc(C(F)(F)F)ccc3nc2-c2ccccc2)cc(OC)c1OC` cannot be ordered by TGI: over 10 µM for the first, 81.8 µM for the second.

For `CCCCN(CCCC)C(=C(C(Cl)=C(Cl)Cl)[N+](=O)[O-])N(CCCC)CCCC`, the TGI was over 100 µM.
